Experimental data published in ChEMBL document CHEMBL5150044, “Macrocyclization of Quinazoline-Based EGFR Inhibitors Leads to Exclusive Mutant Selectivity for EGFR L858R and Del19” (J Med Chem, 2022).
Calls of active or inactive are those of the source. No cut-off for these calls is given here.

Tests used:
[1] = target: BMP-2-inducible protein kinase (Homo sapiens) (UniProt Q9NSY1); assay: Binding affinity to recombinant BMP2K (unknown origin) assessed as change in melting temperature 10 uM by differential scanning fluorimetry
[2] = target: T1, Mitogen-activated protein kinase 1 and 3 (ERK2 and ERK1) (Mus musculus) (UniProt P63085+Q63844); format: cell-based; settings: BaF3, dose 10-1000 nM, time 8.0 hrs
[3] = target: T2, Dual specificity tyrosine-phosphorylation-regulated kinase 2 (Homo sapiens) (UniProt Q92630); assay: Binding affinity to recombinant DYRK2 (unknown origin) assessed as change in melting temperature 10 uM by differential scanning fluorimetry
T2 sequence (whole entry): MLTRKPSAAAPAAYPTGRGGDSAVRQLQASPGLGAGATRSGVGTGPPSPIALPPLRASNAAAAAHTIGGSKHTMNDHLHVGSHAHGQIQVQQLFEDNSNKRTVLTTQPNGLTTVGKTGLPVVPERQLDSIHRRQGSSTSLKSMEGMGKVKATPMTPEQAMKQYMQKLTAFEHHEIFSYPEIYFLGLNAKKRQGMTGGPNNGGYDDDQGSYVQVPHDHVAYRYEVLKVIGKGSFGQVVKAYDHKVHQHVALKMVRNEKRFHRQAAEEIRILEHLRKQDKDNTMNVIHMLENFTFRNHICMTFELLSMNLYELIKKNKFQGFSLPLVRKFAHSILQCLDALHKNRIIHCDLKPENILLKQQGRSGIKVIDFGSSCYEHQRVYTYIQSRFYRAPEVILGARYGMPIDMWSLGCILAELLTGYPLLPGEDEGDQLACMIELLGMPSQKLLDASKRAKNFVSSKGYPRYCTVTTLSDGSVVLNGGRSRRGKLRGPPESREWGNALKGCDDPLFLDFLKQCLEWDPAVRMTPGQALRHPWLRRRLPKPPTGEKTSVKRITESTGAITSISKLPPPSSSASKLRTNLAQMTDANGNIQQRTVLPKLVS

BaF3 [4] = assay: cells; format: functional, cell-based; settings: Mus musculus, BaF3, 72 h
[5] = target: T3, Serine/threonine-protein kinase 17B (Homo sapiens) (UniProt O94768); assay: Binding affinity to recombinant […] (unknown origin) assessed as change in melting temperature 10 uM by differential scanning fluorimetry
T3 sequence (whole entry): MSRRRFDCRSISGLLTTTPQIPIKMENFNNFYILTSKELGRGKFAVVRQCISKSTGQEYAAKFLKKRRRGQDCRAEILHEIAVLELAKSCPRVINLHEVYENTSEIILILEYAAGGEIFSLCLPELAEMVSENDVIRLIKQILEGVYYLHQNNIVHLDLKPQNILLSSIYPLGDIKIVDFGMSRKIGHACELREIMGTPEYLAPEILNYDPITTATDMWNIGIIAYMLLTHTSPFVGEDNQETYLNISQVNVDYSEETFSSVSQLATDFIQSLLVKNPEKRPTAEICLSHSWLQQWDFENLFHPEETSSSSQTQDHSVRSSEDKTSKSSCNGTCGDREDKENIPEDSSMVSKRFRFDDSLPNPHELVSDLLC

[6] = target: Dual specificity tyrosine-phosphorylation-regulated kinase 1A (Homo sapiens) (UniProt Q13627); assay: Binding affinity to recombinant DYRK1 (unknown origin) assessed as change in melting temperature 10 uM by differential scanning fluorimetry
BaF3 [7] = assay: cells; settings: Mus musculus, BaF3, 72 h
BaF3 [8] = assay: cells; format: functional, cell-based; settings: Mus musculus, BaF3, 72 h; remark: listed apart in the source
BaF3 [9] = assay: cells; settings: Mus musculus, BaF3, 72 h; remark: listed apart in the source
[10] = target: T1, Mitogen-activated protein kinase 1 and 3 (ERK2 and ERK1) (Mus musculus); format: cell-based; settings: BaF3, dose 10-1000 nM, time 8.0 hrs; remark: listed apart in the source
[11] = target: RAC-alpha serine/threonine-protein kinase (Mus musculus) (UniProt P31750); assay: Inhibition of AKT phosphorylation in mouse BaF3 cells harboring Del19 mutant assessed as […] phosphorylation at 10 to 1000 nM incubated for 8 hrs by Western blot analysis; format: cell-based; settings: dose 10-1000 nM
[12] = target: T1, Mitogen-activated protein kinase 1 and 3 (ERK2 and ERK1) (Mus musculus); assay: Inhibition of ERK1/2 phosphorylation in mouse BaF3 cells harboring L858R mutant assessed as ERK1/2 phosphorylation at 10 to 1000 nM incubated for 8 hrs by Western blot analysis; format: cell-based; settings: dose 10-1000 nM
BaF3 [13] = assay: cells; settings: Mus musculus, BaF3, 72 h; remark: listed apart in the source

T1 sequence (P63085 whole entry, looked up): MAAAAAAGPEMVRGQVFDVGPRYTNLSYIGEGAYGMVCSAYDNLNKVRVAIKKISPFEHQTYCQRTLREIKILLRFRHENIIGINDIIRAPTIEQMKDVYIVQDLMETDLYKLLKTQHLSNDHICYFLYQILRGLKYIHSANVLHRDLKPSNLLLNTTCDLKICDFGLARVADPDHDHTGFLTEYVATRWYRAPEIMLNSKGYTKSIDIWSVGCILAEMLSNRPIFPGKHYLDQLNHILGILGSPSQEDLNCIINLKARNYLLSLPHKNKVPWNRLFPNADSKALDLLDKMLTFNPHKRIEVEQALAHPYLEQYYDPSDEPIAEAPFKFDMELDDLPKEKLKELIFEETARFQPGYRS
T1 sequence (Q63844 whole entry, looked up): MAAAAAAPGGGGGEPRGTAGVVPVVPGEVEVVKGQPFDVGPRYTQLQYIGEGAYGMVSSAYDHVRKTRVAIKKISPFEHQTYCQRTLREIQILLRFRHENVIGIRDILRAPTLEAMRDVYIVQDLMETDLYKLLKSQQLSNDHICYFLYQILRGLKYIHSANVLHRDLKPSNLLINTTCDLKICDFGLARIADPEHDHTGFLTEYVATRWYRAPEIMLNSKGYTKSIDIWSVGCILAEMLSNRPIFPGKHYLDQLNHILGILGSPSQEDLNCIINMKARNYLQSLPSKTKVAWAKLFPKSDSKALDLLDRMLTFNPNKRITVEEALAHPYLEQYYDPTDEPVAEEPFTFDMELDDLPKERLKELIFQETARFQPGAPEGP
Sequence of BMP-2-inducible protein kinase (Homo sapiens) (Q9NSY1 whole entry, looked up): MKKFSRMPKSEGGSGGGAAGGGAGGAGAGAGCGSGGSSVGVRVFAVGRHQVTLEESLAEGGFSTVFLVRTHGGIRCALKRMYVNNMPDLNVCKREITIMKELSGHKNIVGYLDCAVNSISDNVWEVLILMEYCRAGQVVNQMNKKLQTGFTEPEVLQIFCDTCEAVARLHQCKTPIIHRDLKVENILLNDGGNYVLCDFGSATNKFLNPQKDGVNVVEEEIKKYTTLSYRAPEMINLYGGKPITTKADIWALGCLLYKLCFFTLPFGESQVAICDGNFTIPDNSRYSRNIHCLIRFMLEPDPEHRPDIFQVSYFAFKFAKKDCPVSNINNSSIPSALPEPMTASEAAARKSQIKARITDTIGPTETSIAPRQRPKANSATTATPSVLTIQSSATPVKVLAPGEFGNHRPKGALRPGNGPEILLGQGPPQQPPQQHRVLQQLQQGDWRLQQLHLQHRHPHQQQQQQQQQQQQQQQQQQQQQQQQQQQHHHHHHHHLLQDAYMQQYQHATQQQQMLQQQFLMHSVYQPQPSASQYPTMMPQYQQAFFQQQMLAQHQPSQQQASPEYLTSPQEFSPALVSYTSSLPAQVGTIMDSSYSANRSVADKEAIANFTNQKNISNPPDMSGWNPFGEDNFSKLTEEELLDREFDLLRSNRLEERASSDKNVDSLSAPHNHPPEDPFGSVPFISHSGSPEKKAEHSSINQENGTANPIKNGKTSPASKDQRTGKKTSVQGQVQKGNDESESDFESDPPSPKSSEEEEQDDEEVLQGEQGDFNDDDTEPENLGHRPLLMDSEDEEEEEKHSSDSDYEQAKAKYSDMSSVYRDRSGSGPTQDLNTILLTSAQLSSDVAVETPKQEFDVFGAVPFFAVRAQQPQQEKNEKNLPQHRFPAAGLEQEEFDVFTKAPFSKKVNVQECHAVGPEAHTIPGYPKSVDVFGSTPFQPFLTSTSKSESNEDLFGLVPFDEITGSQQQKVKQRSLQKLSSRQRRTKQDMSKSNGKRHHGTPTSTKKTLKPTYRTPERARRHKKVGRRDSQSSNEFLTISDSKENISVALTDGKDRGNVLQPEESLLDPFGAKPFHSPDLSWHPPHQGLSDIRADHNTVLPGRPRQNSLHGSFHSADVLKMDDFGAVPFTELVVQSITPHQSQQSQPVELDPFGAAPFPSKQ
Sequence of RAC-alpha serine/threonine-protein kinase (Mus musculus) (P31750 whole entry): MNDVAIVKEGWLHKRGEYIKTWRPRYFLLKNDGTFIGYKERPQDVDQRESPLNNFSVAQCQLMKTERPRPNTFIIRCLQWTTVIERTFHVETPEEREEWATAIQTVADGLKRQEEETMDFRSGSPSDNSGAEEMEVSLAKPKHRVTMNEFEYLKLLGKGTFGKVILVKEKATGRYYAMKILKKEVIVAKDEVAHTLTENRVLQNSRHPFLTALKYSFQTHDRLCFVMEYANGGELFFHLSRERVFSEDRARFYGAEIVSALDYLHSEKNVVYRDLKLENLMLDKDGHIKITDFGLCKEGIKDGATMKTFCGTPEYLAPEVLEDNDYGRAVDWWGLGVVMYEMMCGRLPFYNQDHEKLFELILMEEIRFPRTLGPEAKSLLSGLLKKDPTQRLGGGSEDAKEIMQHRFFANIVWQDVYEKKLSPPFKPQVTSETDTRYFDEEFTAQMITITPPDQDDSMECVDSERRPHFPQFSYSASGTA

ΔTm [1]: > 3 °C
inhibition [2]: Active
ΔTm [3]: > 3 °C
IC50 (BaF3 [4]): 121 nM
ΔTm [5]: > 3 °C
ΔTm [6]: > 3 °C
IC50 (BaF3 [7]): 141 nM
IC50 (BaF3 [8]): 5180 nM
IC50 (BaF3 [9]): 206 nM
inhibition [10]: Active
inhibition [11]: Active
inhibition [12]: Active
IC50 (BaF3 [13]): 93.1 nM
Structure (SMILES): COc1cc2ncnc(Nc3cc(Cl)c(F)cc3O)c2cc1O
